Experimental data as given in paper PMC9990147 (Nature, 2021).
One block for each molecule: values may come before it.

Tests used:
human PCFT (SLC46A1) = target: T1, human PCFT (SLC46A1) (Homo sapiens, UniProt Q96NT5); test: cell-based 3H-folic acid uptake at pH […] and […]
T1 sequence (Q96NT5 1-459): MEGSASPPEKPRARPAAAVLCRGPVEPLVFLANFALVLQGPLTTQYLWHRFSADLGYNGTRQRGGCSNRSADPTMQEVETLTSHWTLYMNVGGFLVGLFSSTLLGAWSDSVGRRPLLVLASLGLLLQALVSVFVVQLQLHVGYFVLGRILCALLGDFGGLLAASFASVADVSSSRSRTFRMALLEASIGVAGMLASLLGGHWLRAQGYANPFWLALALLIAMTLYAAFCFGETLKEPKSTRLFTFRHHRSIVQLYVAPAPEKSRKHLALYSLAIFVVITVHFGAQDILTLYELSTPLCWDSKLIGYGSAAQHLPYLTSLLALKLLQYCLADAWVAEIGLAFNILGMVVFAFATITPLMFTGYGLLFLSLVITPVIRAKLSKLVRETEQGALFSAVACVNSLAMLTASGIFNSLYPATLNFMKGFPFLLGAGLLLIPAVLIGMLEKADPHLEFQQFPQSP

[1] = target: T2, PCFT (proton-coupled folate transporter, SLC46A1) (Gallus gallus, UniProt F1NJ67); test: cryo-EM structure at […] Å; type: cell-based
T2 sequence (F1NJ67 1-473): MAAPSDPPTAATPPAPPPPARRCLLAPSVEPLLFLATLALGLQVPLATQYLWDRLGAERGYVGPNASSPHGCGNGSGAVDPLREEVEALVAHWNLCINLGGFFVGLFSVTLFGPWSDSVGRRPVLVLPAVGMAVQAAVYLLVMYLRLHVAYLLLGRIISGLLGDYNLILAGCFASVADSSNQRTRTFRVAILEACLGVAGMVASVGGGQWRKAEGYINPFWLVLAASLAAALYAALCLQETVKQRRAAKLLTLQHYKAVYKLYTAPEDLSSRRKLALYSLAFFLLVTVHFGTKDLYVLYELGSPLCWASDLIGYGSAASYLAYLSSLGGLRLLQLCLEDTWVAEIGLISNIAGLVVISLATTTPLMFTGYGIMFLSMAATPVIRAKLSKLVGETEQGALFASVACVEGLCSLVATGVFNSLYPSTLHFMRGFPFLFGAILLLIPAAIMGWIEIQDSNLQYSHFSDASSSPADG

[2] = target: T3, biotinylated chicken PCFT with C-terminal Avi-tag (Gallus gallus (UniProt E6Y8U5 sequence), biotin on the C-terminal Avi-tag); test: BLI
T3 chain: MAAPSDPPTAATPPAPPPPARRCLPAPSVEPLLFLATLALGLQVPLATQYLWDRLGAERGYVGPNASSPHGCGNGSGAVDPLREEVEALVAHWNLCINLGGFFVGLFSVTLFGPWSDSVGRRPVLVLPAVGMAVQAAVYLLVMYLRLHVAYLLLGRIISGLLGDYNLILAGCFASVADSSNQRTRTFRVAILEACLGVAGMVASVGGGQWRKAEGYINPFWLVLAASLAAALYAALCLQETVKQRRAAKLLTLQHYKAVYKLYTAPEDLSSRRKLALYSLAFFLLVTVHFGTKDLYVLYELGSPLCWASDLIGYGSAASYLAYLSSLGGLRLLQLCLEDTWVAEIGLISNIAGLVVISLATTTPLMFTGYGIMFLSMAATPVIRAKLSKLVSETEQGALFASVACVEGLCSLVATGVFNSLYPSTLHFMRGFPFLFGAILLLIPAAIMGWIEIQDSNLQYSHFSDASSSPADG

Molecule: Nc1nc(=O)c2nc(CNc3ccc(C(=O)N[C@@H](CCC(=O)O)C(=O)O)cc3)cnc2[nH]1 [FA, folic acid]
cell-based 3H-folic acid uptake at pH 5.5 and 7.5 (human PCFT (SLC46A1)): The human and chicken homologues transport similar amounts of folic acid to each other and do so only at acidic pH

IC50 [1]: 900 nM
Molecule: Nc1nc2[nH]cc(CCc3ccc(C(=O)N[C@@H](CCC(=O)O)C(=O)O)cc3)c2c(=O)[nH]1 [PMX, pemetrexed]

Kd [2]: 8 nM
B1: PCFT nanobody (high-affinity inhibitory nanobody from a naive llama library) (VHH)
VHH: QVQLVESGGGLVQPGGSLRLSCAASGFTFSRYWMYWVRQAPGKGPEWLSHMNPSGSDIKYTDSVKGRFTISRDNAKNTLYLQMNSLKPDDTAVYYCVADRRALGSPEYWGQGTQVTVSS
